Test results: patent publication US7569567B2, “3-Heteroaryl-3,5-dihydro-4-oxo-4H-pyridazino[4,5-B]indole-1-carboxamide derivatives, their preparation and therapeutic use” (sanofi-aventis, priority 2001, dated 2009)

Row | melting point | SMILES
1 | 228 to 230 °C | CN(C)C(=O)c1nn(-c2cccnc2)c(=O)c2c1c1ccc(Cl)cc1n2C.Cl
2 | 263 to 265 °C | CN(C)C(=O)c1nn(-c2ccncc2)c(=O)c2c1c1ccc(Cl)cc1n2C.Cl
3 | 232 to 234 °C | Cl.Cn1c2cc(Cl)ccc2c2c(C(=O)N3CCCC3)nn(-c3cccnc3)c(=O)c21
4 | 267 to 268 °C | CN1CCN(C(=O)c2nn(-c3cccnc3)c(=O)c3c2c2ccc(Cl)cc2n3C)CC1.Cl
5 | 266 to 271 °C | CN(C)C(=O)c1nn(-c2ccncc2)c(=O)c2c1c1ccc(F)cc1n2C.Cl
6 | 269 to 273 °C | CN1CCN(C(=O)c2nn(-c3cccnc3)c(=O)c3c2c2ccc(F)cc2n3C)CC1.Cl
7 | 199 to 200 °C | CN(C)C(=O)c1nn(-c2ccccn2)c(=O)c2c1c1ccc(F)cc1n2C [Compound 1, 7-fluoro-N,N,5-trimethyl-4-oxo-3-(pyridin-2-yl)-3,5-dihydro-4H-pyridazino[4,5-b]indole-1-carboxamide]
8 | 220 to 221 °C | CN(C)C(=O)c1nn(-c2cccnc2)c(=O)c2c1c1ccc(F)cc1n2C [Compound 2, 7-fluoro-N,N,5-trimethyl-4-oxo-3-(pyridin-3-yl)-3,5-dihydro-4H-pyridazino[4,5-b]indole-1-carboxamide]
9 | 225 to 226 °C | COc1ccc(-n2nc(C(=O)N(C)C)c3c4ccc(F)cc4n(C)c3c2=O)cn1 [Compound 4, 7-fluoro-N,N,5-trimethyl-4-oxo-3-(2-methoxypyridin-5-yl)-3,5-dihydro-4H-pyridazino[4,5-b]indole-1-carboxamide]
10 | 237 to 238 °C | CN(C)C(=O)c1nn(-c2cnc3ccccc3c2)c(=O)c2c1c1ccc(F)cc1n2C [Compound 5, 7-fluoro-N,N,5-trimethyl-4-oxo-3-(quinolin-3-yl)-3,5-dihydro-4H-pyridazino[4,5-b]indole-1-carboxamide]
11 | 238 to 239 °C | Cn1c2cc(F)ccc2c2c(C(=O)N3CCCC3)nn(-c3ncccn3)c(=O)c21 [Compound 6, 1-[[7-fluoro-5-methyl-3-(pyrimidin-2-yl)-4-oxo-3,5-dihydro-4H-pyridazino[4,5-b]indol-1-yl]carbonyl]-pyrrolidine]
12 | 220 to 221 °C | Cn1c2cc(F)ccc2c2c(C(=O)N3CCCC3)nn(-c3cccnc3)c(=O)c21 [Compound 8, 1-[[7-fluoro-5-methyl-3-(pyridin-3-yl)-4-oxo-3,5-dihydro-4H-pyridazino[4,5-b]indol-1-yl]carbonyl]-pyrrolidine]
13 | 270 to 272 °C | CNC(=O)c1nn(-c2cccnc2)c(=O)c2c1c1ccc(F)cc1n2C [Compound 9, 7-fluoro-N,5-dimethyl-4-oxo-3-(pyridin-3-yl)-3,5-dihydro-4H-pyridazino[4,5-b]indole-1-carboxamide]
14 | 319 to 320 °C | Cn1c2cc(F)ccc2c2c(C(N)=O)nn(-c3cccnc3)c(=O)c21 [Compound 10, 7-fluoro-5-methyl-4-oxo-3-(pyridin-3-yl)-3,5-dihydro-4H-pyridazino[4,5-b]indole-1-carboxamide]
15 | 210 to 211 °C | CN(C)C(=O)c1nn(-c2ccccn2)c(=O)c2c1c1ccc(Cl)cc1n2C [Compound 11, 7-chloro-N,N,5-trimethyl-4-oxo-3-(pyridin-2-yl)-3,5-dihydro-4H-pyridazino[4,5-b]indole-1-carboxamide]
16 | 276 to 278 °C | CN(C)C(=O)c1nn(-c2ccncc2)c(=O)c2c1c1ccc(Cl)cc1n2C [Compound 13, 7-chloro-N,N,5-trimethyl-4-oxo-3-(pyridin-4-yl)-3,5-dihydro-4H-pyridazino[4,5-b]indole-1-carboxamide]
17 | 222 to 224 °C | Cc1ccc(-n2nc(C(=O)N(C)C)c3c4ccc(Cl)cc4n(C)c3c2=O)nc1 [Compound 15, 7-chloro-N,N,5-trimethyl-4-oxo-3-(5-methylpyridin-2-yl)-3,5-dihydro-4H-pyridazino[4,5-b]indole-1-carboxamide]
18 | 236 to 237 °C | COc1ccc(-n2nc(C(=O)N(C)C)c3c4ccc(Cl)cc4n(C)c3c2=O)cn1 [Compound 16, 7-chloro-N,N,5-trimethyl-4-oxo-3-(2-methoxypyridin-5-yl)-3,5-dihydro-4H-pyridazino[4,5-b]indole-1-carboxamide]

Row | melting point | SMILES
19 | 214 to 216 °C | Cc1ccc(-n2nc(C(=O)N(C)C)c3c4ccc(Cl)cc4n(C)c3c2=O)cn1 [Compound 17, 7-chloro-N,N,5-trimethyl-4-oxo-3-(2-methylpyridin-5-yl)-3,5-dihydro-4H-pyridazino[4,5-b]indole-1-carboxamide]
20 | 250 to 252 °C | CN(C)C(=O)c1nn(-c2ccc(Br)nc2)c(=O)c2c1c1ccc(Cl)cc1n2C [Compound 18, 7-chloro-N,N,5-trimethyl-4-oxo-3-(2-bromopyridin-5-yl)-3,5-dihydro-4H-pyridazino[4,5-b]indole-1-carboxamide]
21 | 271 to 272 °C | CN(C)C(=O)c1nn(-c2cnc3ccccc3c2)c(=O)c2c1c1ccc(Cl)cc1n2C [Compound 19, 7-chloro-N,N,5-trimethyl-4-oxo-3-(quinolin-3-yl)-3,5-dihydro-4H-pyridazino[4,5-b]indole-1-carboxamide]
22 | 189 to 191 °C | CN(C)C(=O)c1nn(-c2cncc3ccccc23)c(=O)c2c1c1ccc(Cl)cc1n2C [Compound 20, 7-chloro-N,N,5-trimethyl-4-oxo-3-(isoquinolin-4-yl)-3,5-dihydro-4H-pyridazino[4,5-b]indole-1-carboxamide]
23 | 238 to 239 °C | Cc1ccc(-n2nc(C(=O)N(C)C)c3c4ccc(Cl)cc4n(C)c3c2=O)nn1 [Compound 21, 7-chloro-N,N,5-trimethyl-4-oxo-3-(6-methyl-pyridazin-3-yl)-3,5-dihydro-4H-pyridazino[4,5-b]indole-1-carboxamide]
24 | 251 to 252 °C | CN(C)C(=O)c1nn(-c2cncnc2)c(=O)c2c1c1ccc(Cl)cc1n2C [Compound 22, 7-chloro-N,N,5-trimethyl-4-oxo-3-(pyrimidin-5-yl)-3,5-dihydro-4H-pyridazino[4,5-b]indole-1-carboxamide]
25 | 272 to 274 °C | CN(C)C(=O)c1nn(-c2ncccn2)c(=O)c2c1c1ccc(Cl)cc1n2C [Compound 23, 7-chloro-N,N,5-trimethyl-4-oxo-3-(pyrimidin-2-yl)-3,5-dihydro-4H-pyridazino[4,5-b]indole-1-carboxamide]
26 | 231 to 232 °C | CN(C)C(=O)c1nn(-c2cnccn2)c(=O)c2c1c1ccc(Cl)cc1n2C [Compound 24, 7-chloro-N,N,5-trimethyl-4-oxo-3-(pyrazin-2-yl)-3,5-dihydro-4H-pyridazino[4,5-b]indole-1-carboxamide]
27 | 236 to 237 °C | Cn1c2cc(Cl)ccc2c2c(C(=O)N3CCCC3)nn(-c3ccncc3)c(=O)c21 [Compound 27, 1-[[7-chloro-5-methyl-3-(pyridin-4-yl)-4-oxo-3,5-dihydro-4H-pyridazino[4,5-b]indol-1-yl]carbonyl]-pyrrolidine]
28 | 321 to 323 °C | CNC(=O)c1nn(-c2ccncc2)c(=O)c2c1c1ccc(Cl)cc1n2C [Compound 28, 7-chloro-N,5-dimethyl-4-oxo-3-(pyridin-4-yl)-3,5-dihydro-4H-pyridazino[4,5-b]indole-1-carboxamide]
29 | 341 to 346 °C | Cn1c2cc(Cl)ccc2c2c(C(N)=O)nn(-c3ccncc3)c(=O)c21 [Compound 29, 7-chloro-5-methyl-4-oxo-3-(pyridin-4-yl)-3,5-dihydro-4H-pyridazino[4,5-b]indole-1-carboxamide]
30 | 243 to 244 °C | COc1ccnc(-n2nc(C(=O)N(C)C)c3c4ccc(Cl)cc4n(C)c3c2=O)c1 [Compound 30, 7-chloro-N,N,5-trimethyl-4-oxo-3-(4-methoxypyridin-2-yl)-3,5-dihydro-4H-pyridazino[4,5-b]indole-1-carboxamide]
31 | 211 to 213 °C | CCN(C)C(=O)c1nn(-c2ccncc2)c(=O)c2c1c1ccc(Cl)cc1n2C [Compound 33, 7-chloro-N-ethyl-N,5-dimethyl-4-oxo-3-(pyridin-4-yl)-3,5-dihydro-4H-pyridazino[4,5-b]indole-1-carboxamide]
32 | 242 to 243 °C | Cn1c2cc(Cl)ccc2c2c(C(=O)N3CCCCC3)nn(-c3ccncc3)c(=O)c21 [Compound 34, 1-[[7-chloro-5-methyl-3-(pyridin-4-yl)-4-oxo-3,5-dihydro-4H-pyridazino[4,5-b]indol-1-yl]carbonyl]-piperidine]
33 | 267 to 269 °C | Cc1cc(-n2nc(C(=O)N(C)C)c3c4ccc(Cl)cc4n(C)c3c2=O)ccn1 [Compound 35, 7-chloro-N,N,5-trimethyl-4-oxo-3-(2-methylpyridin-4-yl)-3,5-dihydro-4H-pyridazino[4,5-b]indole-1-carboxamide]
34 | 246 to 247 °C | Cc1cc(-n2nc(C(=O)N3CCCC3)c3c4ccc(Cl)cc4n(C)c3c2=O)ccn1 [Compound 36, 1-[[7-chloro-5-methyl-3-(2-methylpyridin-4-yl)-4-oxo-3,5-dihydro-4H-pyridazino[4,5-b]indol-1-yl]carbonyl]pyrrolidine]
35 | 301 to 304 °C | CN(C)C(=O)c1nn(-c2cc[n+]([O-])cc2)c(=O)c2c1c1ccc(Cl)cc1n2C [Compound 37, 7-chloro-N,N,5-trimethyl-3-(1-oxidopyridin-4-yl)-4-oxo-3,5-dihydro-4H-pyridazino[4,5-b]indole-1-carboxamide]
36 | 237 to 238 °C | COc1cc(-n2nc(C(=O)N(C)C)c3c4ccc(Cl)cc4n(C)c3c2=O)ccn1 [Compound 38, 7-chloro-3-(2-methoxypyridin-4-yl)-N,N,5-trimethyl-4-oxo-3,5-dihydro-4H-pyridazino[4,5-b]indole-1-carboxamide]
